Laboratory results from PubChem BioAssay AID1963845 (Molecular Pharmacology Branch, DTP, NCI, 2024).
Where “and” joins values, the source holds several entries; their conditions need not be identical. Equal entries are not always repeated.

Test system: 429239-143-T-J1-PDC complex spheroid viability
Experiment: Anticancer human tumor 429239-143-T-J1-PDC patient-derived small cell lung carcinoma cell line growth inhibition [POLQ]
Details: for viability, T/C: stronger effect = lower value
Method: Multicellular complex tumor spheroid response to Polymerase (POL) inhibitors (novobiocin, ART-558, RP6685) in combination with a variety of drugs and investigational agents in selected tumor cell lines
The POL inhibitors (novobiocin, ART-558, and RP6685) were evaluated both individually and in combination with standard of care and investigational anticancer small molecules within a complex spheroid model of solid tumors. . Complex spheroids include a stromal component modeled by human endothelial cells (HUVEC) and fibroblasts modeled by human mesenchymal stem cells (MSCs). The concentration ranges selected for each drug and investigational agent were based upon clinically achievable concentrations if the clinical Cmax of the agent was known.
Compounds. The drugs and investigational agents: novobiocin (NSC847541), ART-558 (NSC835418), RP-6685 (NSC848927), peposertib (NSC802822), ceralasertib (NSC780249), elimusertib (NSC800525), camonsertib (NSC841442), AZD-1390 (NSC803789), olaparib (NSC753686), talazoparib (NSC767125), rucaparib (NSC756644), sotorasib (NSC818433), MRTX-1133 (NSC836407), SN-38 (NSC673596), topotecan (NSC609699), epotoside (NSC141540), doxorubicin (NSC123127), gemcitabine (NSC613327), 5-fluorouracil (NSC19893), paclitaxel (NSC125973), vemurafenib (NSC761431), MSA-2 (NSC828583), SN-011 (NSC837082), adavosertib (NSC754352), prexasertib (NSC758257), carboplatin (NSC241240) and oxaliplatin (NSC266046), were obtained from the National Cancer Institute (NCI) Developmental Therapeutics Program Chemical Repository (21). The FDA-approved anticancer drug set is available from the Developmental Therapeutics Program at https://dtp.cancer.gov/organization/dscb/obtaining/. […] The stock solutions were prepared in dimethyl sulfoxide (DMSO, Sigma-Aldrich, St. Louis, MO, cat. D2650), except for the platinum compounds which were prepared in saline (Quality Biological, Gaithersburg, MD, cat. 114-055-101), at 800-fold the tested concentration and stored at -70 degrees C prior to their use. All drugs and investigational agents were tested over a range starting from a high concentration at or near the clinical Cmax and decreasing in half-log increments. If the clinical Cmax for an agent had not been determined, the highest concentration tested was 10 microM, except for SN-38, which was tested at a high concentration of 1 microM.
Cell Culture. All cells were maintained in an incubator at 37 degrees C and 5% CO2 with 95% humidity. The PDC lines were cultured according to standard operating procedures established by the NCI PDMR (https://pdmr.cancer.gov). Table 3 of the manuscript, lists the cell lines along with the number of the three cell types plated to form the mct-spheroids and media for tumor cell growth. After thawing, all PDC lines, except 997537-175-T-J1-PDC and 415267-285-R-J2-PDC, were cultured in Matrigel-coated flasks prepared with a working solution of 1X Ham's F-12 nutrient mix, without supplementation (Thermo Fisher Scientific, cat. 11765054), 100 U/mL penicillin-streptomycin (Thermo Fisher Scientific, cat. 15140122), and 2.5% Matrigel (Corning Inc., Corning, NY, cat. 354248) for the first three passages. The two PDC lines 997537-175-T-J1-PDC and 415267-285-R-J2-PDC were cultured on uncoated flasks. The 857933-349-R-J2-PDC line was cultured in 6C/Colon 1B media containing advanced DMEM/F-12 (Thermo Fisher Scientific, cat. 12634028), 10 mM HEPES (Thermo Fisher Scientific, cat. 15630080), 1X GlutaMAX supplement (Thermo Fisher Scientific, cat. 35050061), 0.1 mg/mL primocin (InvivoGen, San Diego, CA, cat. ant-pm-2), 10% defined fetal bovine serum, heat inactivated (HyClone Laboratories Inc., Logan, UT, cat. SH30070.03HI), 50% L-WRN conditioned media (ATCC, cat. CRL-3276), 1.25 mM N-Acetyl-L-cysteine (Sigma-Aldrich, cat. A9165), 10 mM nicotinamide (Sigma-Aldrich, cat. N0636), 1X B-27 supplement (Thermo Fisher Scientific, cat. 17504044), 1X N-2 supplement (Thermo Fisher Scientific, cat. […]
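Also: luminescence signal used as surrogate measure of viable cells; spheroids exposed to compounds for seven days before readout.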
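For viability, T/C in this document: 100% = DMSO vehicle control viability as luminescence relative to vehicle.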

**Q.** How did the viability, T/C (compound 0.0316 µM) turn out when `COc1cc(C2c3cc4c(cc3C(OC3OC5COC(C)OC5C(O)C3O)C3COC(=O)C23)OCO4)cc(OC)c1O` (stereo not drawn) was run?
**A.** 99.3% and 97.8% and 98.3%

**Q.** And the viability, T/C (compound 0.1 µM)?
**A.** 83.6% and 97.1% and 85.7%

**Q.** And the viability, T/C (compound 0.316 µM)?
**A.** 67.2% and 76.3% and 51.2%

**Q.** And the viability, T/C (compound 1 µM)?
**A.** 21% and 16.1% and 18%

**Q.** And the viability, T/C (compound 3.16 µM)?
**A.** 18.4% and 7.9% and 16%

**Q.** What about the viability, T/C (compound 10 µM) of the same compound?
**A.** 16.8% and 7.28% and 16.6%

**Q.** And the IC50 (curve of compound)?
**A.** 0.483 µM and 0.523 µM and 0.313 µM

**Q.** How did the viability, T/C (compound 0.000316 µM) turn out when `CC[C@@]1(O)C(=O)OCc2c1cc1n(c2=O)Cc2cc3c(CN(C)C)c(O)ccc3nc2-1` was run?
**A.** 98.5% and 98.7% and 92.7%

**Q.** What about the viability, T/C (compound 0.001 µM) of the same compound?
**A.** 96.4% and 98.7% and 99.2%

**Q.** And the viability, T/C (compound 0.00316 µM)?
**A.** 99.3% and 95.3% and 99.2%

**Q.** And the viability, T/C (compound 0.01 µM)?
**A.** 64% and 86.4% and 63.1%

**Q.** And the viability, T/C (compound 0.0316 µM)?
**A.** 18% and 9.22% and 16.4%

**Q.** What about the viability, T/C (compound 0.1 µM) of the same compound?
**A.** 16% and 6.06% and 17.5%

**Q.** And the IC50 (curve of compound)?
**A.** 0.0141 µM and 0.0172 µM and 0.0139 µM

**Q.** How did the viability, T/C (compound 0.0316 µM) turn out when `O=c1[nH]cc(F)c(=O)[nH]1` was run?
**A.** 89.3% and 95% and 104%

**Q.** What about the viability, T/C (compound 0.1 µM) of the same compound?
**A.** 103% and 106% and 96%

**Q.** And the viability, T/C (compound 0.316 µM)?
**A.** 92.2% and 102% and 97.8%

**Q.** What about the viability, T/C (compound 1 µM) of the same compound?
**A.** 84% and 89.3% and 89.6%

**Q.** And the viability, T/C (compound 3.16 µM)?
**A.** 70.4% and 45.9% and 66.5%

**Q.** And the viability, T/C (compound 10 µM)?
**A.** 45.4% and 32.2% and 40.9%

**Q.** What about the IC50 (curve of compound) of the same compound?
**A.** 8.2 µM and 2.83 µM and 6.66 µM

**Q.** For `CC(=O)O[C@H]1C(=O)[C@@]2(C)[C@H]([C@H](OC(=O)c3ccccc3)[C@]3(O)C[C@H](OC(=O)[C@H](O)[C@@H](NC(=O)c4ccccc4)c4ccccc4)C(C)=C1C3(C)C)[C@]1(OC(C)=O)CO[C@@H]1C[C@@H]2O`, which viability, T/C (compound 0.00949 µM) is on record?
**A.** 62.4% and 68.4% and 14%

**Q.** What about the viability, T/C (compound 0.03 µM) of the same compound?
**A.** 18.6% and 19.8% and 13.2%

**Q.** What about the viability, T/C (compound 0.0949 µM) of the same compound?
**A.** 14.8% and 17.6% and 11.4%

**Q.** And the viability, T/C (compound 0.3 µM)?
**A.** 19.5% and 16.1% and 12.9%

**Q.** What about the viability, T/C (compound 0.949 µM) of the same compound?
**A.** 19.7% and 25.1% and 11.1%

**Q.** And the viability, T/C (compound 3 µM)?
**A.** 29.5% and 28.1% and 14%

**Q.** And the IC50 (curve of compound)?
**A.** 0.0134 µM and 0.0149 µM and < 0.00949 µM

**Q.** `O=C(c1cc(Cc2n[nH]c(=O)c3ccccc23)ccc1F)N1CCN(C(=O)C2CC2)CC1` was tested. Which viability, T/C (compound 0.0316 µM) did it give?
**A.** 95.1% and 91.7% and 93.1%

**Q.** What about the viability, T/C (compound 0.1 µM) of the same compound?
**A.** 82.3% and 93.9% and 102%

**Q.** And the viability, T/C (compound 0.316 µM)?
**A.** 68.2% and 72.8% and 97.3%

**Q.** And the viability, T/C (compound 1 µM)?
**A.** 69.8% and 78% and 84.5%

**Q.** And the viability, T/C (compound 3.16 µM)?
**A.** 30.4% and 29.6% and 69.6%

**Q.** What about the viability, T/C (compound 10 µM) of the same compound?
**A.** 16.1% and 16.5% and 9.45%

**Q.** And the IC50 (curve of compound)?
**A.** 1.59 µM and 1.93 µM and 4.52 µM

**Q.** With `Cc1cccc(N(C)C(=O)C2C(O)CCN2c2nc(C)cc(C(F)(F)F)c2C#N)c1` (stereo not drawn) as the compound, how does the viability, T/C (compound 0.0316 µM) read?
**A.** 103% [middle of 13 runs]

**Q.** What about the viability, T/C (compound 0.1 µM) of the same compound?
**A.** 102% [middle of 13 runs]

**Q.** And the viability, T/C (compound 0.316 µM)?
**A.** 98% [middle of 13 runs]

**Q.** And the viability, T/C (compound 1 µM)?
**A.** 100% [middle of 13 runs]

**Q.** And the viability, T/C (compound 3.16 µM)?
**A.** 104% [middle of 13 runs]

**Q.** What about the viability, T/C (compound 10 µM) of the same compound?
**A.** 106% [middle of 13 runs]

**Q.** What about the IC50 (compound alone, run of 01/08/2024) of the same compound?
**A.** > 10 µM

**Q.** And the IC50 (compound alone, run of 01/19/2024)?
**A.** > 10 µM
